Data published in ChEMBL document CHEMBL1909046, “DrugMatrix in vitro pharmacology data”.

Experiments:
[1] = target: T1, Alpha-1D adrenergic receptor (Homo sapiens, UniProt P25100); format: cell membranes, HEK293, Membrane; conditions: hek293; further: in other assays of this panel Not Active means under 50% inhibition at 10 µM
T1 sequence (P25100 whole entry): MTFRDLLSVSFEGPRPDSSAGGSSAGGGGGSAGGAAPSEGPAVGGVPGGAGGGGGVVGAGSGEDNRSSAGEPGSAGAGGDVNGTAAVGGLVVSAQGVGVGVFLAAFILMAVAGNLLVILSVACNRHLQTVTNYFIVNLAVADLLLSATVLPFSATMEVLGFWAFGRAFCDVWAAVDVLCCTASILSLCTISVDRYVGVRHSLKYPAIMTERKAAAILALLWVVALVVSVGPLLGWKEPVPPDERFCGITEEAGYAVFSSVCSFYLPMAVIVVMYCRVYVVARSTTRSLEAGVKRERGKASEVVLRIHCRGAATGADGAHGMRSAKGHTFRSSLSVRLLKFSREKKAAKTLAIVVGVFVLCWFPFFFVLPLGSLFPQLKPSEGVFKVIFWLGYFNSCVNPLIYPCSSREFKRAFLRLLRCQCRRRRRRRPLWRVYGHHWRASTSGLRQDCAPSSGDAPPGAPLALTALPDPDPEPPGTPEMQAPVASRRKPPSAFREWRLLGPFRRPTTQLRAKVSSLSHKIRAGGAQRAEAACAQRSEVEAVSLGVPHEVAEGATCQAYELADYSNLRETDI

[2] = target: Beta-2 adrenergic receptor (Homo sapiens, UniProt P07550); assay: DRUGMATRIX: Adrenergic beta2 radioligand binding (ligand: [3H] CGP-12177); format: cell membranes, Membrane; conditions: cho; Not Active = under 50% inhibition at 10 µM
B2 bradykinin receptor = target: T2, B2 bradykinin receptor (Homo sapiens, UniProt P30411); format: cell membranes, Membrane; conditions: chem-1; further: in other assays of this panel Not Active means under 50% inhibition at 10 µM
T2 sequence (P30411 whole entry): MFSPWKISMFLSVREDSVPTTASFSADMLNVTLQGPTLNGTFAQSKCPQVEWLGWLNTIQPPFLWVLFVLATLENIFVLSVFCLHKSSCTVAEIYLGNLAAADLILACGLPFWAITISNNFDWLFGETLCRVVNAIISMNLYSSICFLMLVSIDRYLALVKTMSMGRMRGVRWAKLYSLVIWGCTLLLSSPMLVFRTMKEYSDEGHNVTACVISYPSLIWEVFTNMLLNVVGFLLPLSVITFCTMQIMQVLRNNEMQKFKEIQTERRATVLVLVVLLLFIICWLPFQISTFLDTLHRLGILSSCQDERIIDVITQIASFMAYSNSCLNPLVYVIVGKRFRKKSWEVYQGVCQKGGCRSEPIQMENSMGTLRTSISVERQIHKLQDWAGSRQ

[3] = target: Sigma non-opioid intracellular receptor 1 (Homo sapiens, UniProt Q99720); assay: DRUGMATRIX: Sigma1 radioligand binding (ligand: [3H] Haloperidol); format: cell membranes, Jurkat, Membrane; conditions: jurkat; Not Active = under 50% inhibition at 10 µM
Substance-P receptor = Substance-P receptor (Homo sapiens, UniProt P25103); format: cell membranes, CHO, Membrane; conditions: cho; further: in other assays of this panel Not Active means under 50% inhibition at 10 µM
[4] = target: T3, Muscarinic acetylcholine receptor M4 (Homo sapiens, UniProt P08173); format: cell membranes, CHO-K1, Membrane; further: in other assays of this panel Not Active means under 50% inhibition at 10 µM
T3 sequence (P08173 whole entry): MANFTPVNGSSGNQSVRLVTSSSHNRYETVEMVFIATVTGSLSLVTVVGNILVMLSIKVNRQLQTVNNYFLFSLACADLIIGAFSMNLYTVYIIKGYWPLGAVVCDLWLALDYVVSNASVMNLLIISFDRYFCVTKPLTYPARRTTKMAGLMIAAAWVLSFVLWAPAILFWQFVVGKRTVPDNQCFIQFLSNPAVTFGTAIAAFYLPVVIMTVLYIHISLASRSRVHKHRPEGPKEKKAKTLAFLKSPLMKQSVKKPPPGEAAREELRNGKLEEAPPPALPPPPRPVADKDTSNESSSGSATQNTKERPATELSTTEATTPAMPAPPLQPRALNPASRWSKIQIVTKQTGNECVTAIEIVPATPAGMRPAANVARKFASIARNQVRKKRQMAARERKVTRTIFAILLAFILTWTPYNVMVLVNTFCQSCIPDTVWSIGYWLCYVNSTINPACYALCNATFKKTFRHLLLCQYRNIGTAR

Chain of Sigma non-opioid intracellular receptor 1 (Q99720 whole entry): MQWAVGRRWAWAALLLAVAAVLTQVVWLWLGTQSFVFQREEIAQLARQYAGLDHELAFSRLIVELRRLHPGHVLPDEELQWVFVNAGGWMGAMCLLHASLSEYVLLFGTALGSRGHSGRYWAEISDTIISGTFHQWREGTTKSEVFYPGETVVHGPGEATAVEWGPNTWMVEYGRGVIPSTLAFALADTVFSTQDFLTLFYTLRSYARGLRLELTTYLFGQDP
Chain of Beta-2 adrenergic receptor (P07550 whole entry): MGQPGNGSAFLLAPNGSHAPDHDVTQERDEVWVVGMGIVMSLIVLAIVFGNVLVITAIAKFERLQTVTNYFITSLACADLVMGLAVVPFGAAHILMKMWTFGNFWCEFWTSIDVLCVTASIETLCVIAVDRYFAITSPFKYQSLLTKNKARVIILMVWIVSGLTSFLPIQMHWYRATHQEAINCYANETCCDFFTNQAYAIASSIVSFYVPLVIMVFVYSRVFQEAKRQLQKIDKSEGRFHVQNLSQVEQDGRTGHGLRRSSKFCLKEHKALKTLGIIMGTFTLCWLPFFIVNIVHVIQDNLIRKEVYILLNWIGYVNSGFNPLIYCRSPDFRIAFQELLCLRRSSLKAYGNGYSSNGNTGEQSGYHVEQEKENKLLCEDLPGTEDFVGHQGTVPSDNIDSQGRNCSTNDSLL
Chain of Substance-P receptor (P25103 whole entry): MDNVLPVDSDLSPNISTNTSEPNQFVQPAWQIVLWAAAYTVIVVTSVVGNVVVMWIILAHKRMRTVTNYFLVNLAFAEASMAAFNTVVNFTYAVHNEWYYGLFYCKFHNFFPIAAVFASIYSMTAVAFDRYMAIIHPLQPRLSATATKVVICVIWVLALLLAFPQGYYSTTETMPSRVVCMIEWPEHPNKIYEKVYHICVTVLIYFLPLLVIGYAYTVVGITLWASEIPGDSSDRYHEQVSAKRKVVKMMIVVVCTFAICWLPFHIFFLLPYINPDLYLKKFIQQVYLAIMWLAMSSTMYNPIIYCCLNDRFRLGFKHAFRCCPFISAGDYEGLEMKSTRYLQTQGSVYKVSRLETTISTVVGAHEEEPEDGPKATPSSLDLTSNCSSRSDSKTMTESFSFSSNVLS

SMILES	IC50 [1]	IC50 [2]	IC50 (B2 bradykinin receptor)	IC50 [3]	IC50 (Substance-P receptor)	IC50 ([4]; cho-k1)	IC50 ([4]; read-out: IC50)	Ki ([4]; read-out: Ki)
CC(C)(C)NC(=O)[C@@H]1C[C@@H]2CCCC[C@@H]2CN1C[C@@H](O)[C@H](Cc1ccccc1)NC(=O)[C@H](CC(N)=O)NC(=O)c1ccc2ccccc2n1	Not Active	Not Active	Not Active	Not Active	Not Active	Not Active		
CC(=O)[C@@]1(O)CC[C@H]2[C@@H]3C[C@H](C)C4=CC(=O)CC[C@]4(C)[C@H]3CC[C@@]21C	Not Active	Not Active	Not Active	Not Active	Not Active	Not Active		
N[C@@H](Cc1ccc(N(CCCl)CCCl)cc1)C(=O)O	Not Active	Not Active	Not Active	Not Active	Not Active	Not Active		
CCCCc1oc2ccccc2c1C(=O)c1cc(I)c(OCCN(CC)CC)c(I)c1 [AMIODARONE]	Not Active	Not Active			Not Active		3630 nM	506 nM
OCCN(CCO)c1nc(N2CCCCC2)c2nc(N(CCO)CCO)nc(N3CCCCC3)c2n1 [DIPYRIDAMOLE]	Not Active	Not Active	Not Active	Not Active	Not Active	Not Active		
Cc1oncc1C(=O)Nc1ccc(C(F)(F)F)cc1 [LEFLUNOMIDE]	Not Active	Not Active	Not Active	Not Active	Not Active	Not Active		
c1ccc([C@H]2CN3CCSC3=N2)cc1 [LEVAMISOLE]	Not Active	Not Active	Not Active	Not Active	Not Active	Not Active		
N[C@@H](Cc1ccc(O)c(O)c1)C(=O)O [LEVODOPA]	Not Active	Not Active	Not Active	Not Active	Not Active	Not Active		
N[C@@H](Cc1cc(I)c(Oc2ccc(O)c(I)c2)c(I)c1)C(=O)O [LIOTHYRONINE]	Not Active	Not Active	Not Active	Not Active	Not Active	Not Active		
O=NN(CCCl)C(=O)NC1CCCCC1 [LOMUSTINE]	Not Active	Not Active	Not Active	Not Active	Not Active	Not Active		
CCOC(=O)N1CCC(=C2c3ccc(Cl)cc3CCc3cccnc32)CC1 [LORATADINE]	Not Active	Not Active	Not Active	Not Active	Not Active	Not Active		
Cn1ccnc1S [METHIMAZOLE]	Not Active	Not Active	Not Active	Not Active	Not Active	Not Active		
CC[C@@H](CO)NC(=O)[C@@H]1C=C2c3cccc4[nH]cc(c34)C[C@H]2N(C)C1 [METHYLERGONOVINE]	Not Active	Not Active	Not Active	Not Active	Not Active	Not Active		
COc1nc(C)nc(Cl)c1NC1=NCCN1 [MOXONIDINE]	Not Active	Not Active	Not Active	Not Active	Not Active	Not Active		
COc1c(C)c2c(c(O)c1C/C=C(\C)CCC(=O)O)C(=O)OC2 [MYCOPHENOLIC ACID]	Not Active	Not Active	Not Active	Not Active	Not Active	Not Active		
